How the values were obtained:
Format in all cases: binding
[1] = biological target: SW480 colon carcinoma cells lysate proteins (Homo sapiens, UniProt Q14240); conditions: PreyGene EIF4A2; SW480 cells
[2] = biological target: SW480 colon carcinoma cells lysate proteins (Homo sapiens, UniProt P17980); conditions: PreyGene PSMC3
[3] = biological target: T1, SW480 colon carcinoma cells lysate proteins (Homo sapiens, UniProt P16949); conditions: PreyGene STMN1
T1 sequence (P16949 1-149): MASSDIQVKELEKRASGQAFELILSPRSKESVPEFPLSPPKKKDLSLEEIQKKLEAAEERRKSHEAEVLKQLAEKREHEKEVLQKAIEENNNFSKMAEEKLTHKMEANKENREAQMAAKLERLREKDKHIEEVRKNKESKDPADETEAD

[4] = biological target: SW480 colon carcinoma cells lysate proteins (Homo sapiens, UniProt Q06210); conditions: PreyGene GFPT1; SW480 cells
Sequence of SW480 colon carcinoma cells lysate proteins (Homo sapiens, UniProt Q06210) (Q06210 whole entry): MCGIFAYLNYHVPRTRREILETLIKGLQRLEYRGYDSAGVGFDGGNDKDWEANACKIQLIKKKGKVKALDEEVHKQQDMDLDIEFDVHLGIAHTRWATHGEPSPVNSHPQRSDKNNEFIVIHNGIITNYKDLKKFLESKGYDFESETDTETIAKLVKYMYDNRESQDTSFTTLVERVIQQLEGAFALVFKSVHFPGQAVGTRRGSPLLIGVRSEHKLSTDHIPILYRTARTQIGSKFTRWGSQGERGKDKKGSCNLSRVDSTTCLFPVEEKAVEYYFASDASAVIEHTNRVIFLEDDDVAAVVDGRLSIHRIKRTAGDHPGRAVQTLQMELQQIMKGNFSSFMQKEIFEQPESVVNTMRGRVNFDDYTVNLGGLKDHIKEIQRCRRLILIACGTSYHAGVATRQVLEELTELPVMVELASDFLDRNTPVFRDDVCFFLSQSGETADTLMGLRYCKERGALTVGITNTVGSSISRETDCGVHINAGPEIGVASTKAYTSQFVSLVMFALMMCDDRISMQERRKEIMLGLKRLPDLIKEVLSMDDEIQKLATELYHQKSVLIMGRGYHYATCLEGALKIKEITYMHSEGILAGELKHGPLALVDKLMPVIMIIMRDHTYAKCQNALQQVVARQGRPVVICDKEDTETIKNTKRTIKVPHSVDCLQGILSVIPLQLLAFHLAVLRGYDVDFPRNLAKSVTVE

[5] = biological target: T2, SW480 colon carcinoma cells lysate proteins (Homo sapiens, UniProt Q14444); conditions: PreyGene CAPRIN1
T2 sequence (Q14444 1-709): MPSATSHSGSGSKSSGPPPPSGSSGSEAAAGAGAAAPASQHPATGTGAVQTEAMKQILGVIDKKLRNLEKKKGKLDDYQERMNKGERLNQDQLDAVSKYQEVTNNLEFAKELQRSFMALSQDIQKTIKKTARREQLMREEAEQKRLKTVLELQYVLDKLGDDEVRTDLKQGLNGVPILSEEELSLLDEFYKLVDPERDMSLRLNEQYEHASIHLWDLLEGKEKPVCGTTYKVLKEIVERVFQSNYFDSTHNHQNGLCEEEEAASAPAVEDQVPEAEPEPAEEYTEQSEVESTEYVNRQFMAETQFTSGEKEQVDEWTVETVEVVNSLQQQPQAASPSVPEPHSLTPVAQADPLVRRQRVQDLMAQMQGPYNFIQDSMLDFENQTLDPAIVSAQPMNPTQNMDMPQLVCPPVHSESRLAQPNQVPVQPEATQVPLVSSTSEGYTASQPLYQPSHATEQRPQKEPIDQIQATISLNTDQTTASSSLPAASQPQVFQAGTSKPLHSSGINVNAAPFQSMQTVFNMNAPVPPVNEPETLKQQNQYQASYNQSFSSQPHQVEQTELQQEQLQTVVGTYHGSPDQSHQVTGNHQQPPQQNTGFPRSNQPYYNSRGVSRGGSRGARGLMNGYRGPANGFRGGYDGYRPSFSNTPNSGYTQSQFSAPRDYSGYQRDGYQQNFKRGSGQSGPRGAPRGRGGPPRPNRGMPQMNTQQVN

[6] = biological target: T3, SW480 colon carcinoma cells lysate proteins (Homo sapiens, UniProt O60664); conditions: PreyGene PLIN3
T3 sequence (O60664 1-434): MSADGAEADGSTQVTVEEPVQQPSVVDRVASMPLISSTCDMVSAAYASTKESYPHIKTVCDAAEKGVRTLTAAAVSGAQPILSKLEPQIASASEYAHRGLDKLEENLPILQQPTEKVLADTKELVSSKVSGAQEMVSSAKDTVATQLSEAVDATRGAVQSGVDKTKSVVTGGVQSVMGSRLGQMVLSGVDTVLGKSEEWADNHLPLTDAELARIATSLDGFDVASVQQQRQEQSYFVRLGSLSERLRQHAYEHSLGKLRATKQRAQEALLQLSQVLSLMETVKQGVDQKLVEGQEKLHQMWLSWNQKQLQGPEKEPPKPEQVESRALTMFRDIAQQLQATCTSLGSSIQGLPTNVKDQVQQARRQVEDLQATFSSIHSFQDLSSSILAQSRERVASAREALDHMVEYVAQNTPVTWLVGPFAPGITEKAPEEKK

[7] = biological target: SW480 colon carcinoma cells lysate proteins (Homo sapiens, UniProt P62942); conditions: PreyGene FKBP1A; SW480 cells
Sequence of SW480 colon carcinoma cells lysate proteins (Homo sapiens, UniProt P62942) (P62942 whole entry): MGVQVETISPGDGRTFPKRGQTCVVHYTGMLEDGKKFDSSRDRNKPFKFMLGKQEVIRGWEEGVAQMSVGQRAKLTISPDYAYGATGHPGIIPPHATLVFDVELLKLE

[8] = biological target: T4, SW480 colon carcinoma cells lysate proteins (Homo sapiens, UniProt P00558); conditions: PreyGene PGK1
T4 sequence (P00558 1-417): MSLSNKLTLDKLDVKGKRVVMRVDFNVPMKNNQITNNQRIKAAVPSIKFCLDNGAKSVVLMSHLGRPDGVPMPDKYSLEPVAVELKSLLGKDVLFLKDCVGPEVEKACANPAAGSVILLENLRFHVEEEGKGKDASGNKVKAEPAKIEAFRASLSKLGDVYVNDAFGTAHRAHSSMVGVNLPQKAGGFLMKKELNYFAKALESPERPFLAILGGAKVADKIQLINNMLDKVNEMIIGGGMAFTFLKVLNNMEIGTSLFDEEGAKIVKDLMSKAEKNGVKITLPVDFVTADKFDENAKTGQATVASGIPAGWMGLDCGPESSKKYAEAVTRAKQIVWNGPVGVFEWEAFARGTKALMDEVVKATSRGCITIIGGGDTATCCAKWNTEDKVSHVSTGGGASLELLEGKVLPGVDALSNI

Sequence of SW480 colon carcinoma cells lysate proteins (Homo sapiens, UniProt P17980) (P17980 whole entry): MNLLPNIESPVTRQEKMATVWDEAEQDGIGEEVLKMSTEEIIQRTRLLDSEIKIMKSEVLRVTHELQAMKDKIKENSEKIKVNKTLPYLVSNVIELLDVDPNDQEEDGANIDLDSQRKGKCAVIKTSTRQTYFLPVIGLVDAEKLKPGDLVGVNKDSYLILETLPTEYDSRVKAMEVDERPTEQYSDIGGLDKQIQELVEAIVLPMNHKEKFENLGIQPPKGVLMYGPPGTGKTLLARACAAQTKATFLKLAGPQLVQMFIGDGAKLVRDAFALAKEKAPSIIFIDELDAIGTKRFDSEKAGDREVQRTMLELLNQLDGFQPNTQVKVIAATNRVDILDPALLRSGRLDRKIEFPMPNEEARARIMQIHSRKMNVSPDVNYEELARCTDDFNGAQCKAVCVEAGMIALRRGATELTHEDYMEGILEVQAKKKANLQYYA
Sequence of SW480 colon carcinoma cells lysate proteins (Homo sapiens, UniProt Q14240) (Q14240 whole entry): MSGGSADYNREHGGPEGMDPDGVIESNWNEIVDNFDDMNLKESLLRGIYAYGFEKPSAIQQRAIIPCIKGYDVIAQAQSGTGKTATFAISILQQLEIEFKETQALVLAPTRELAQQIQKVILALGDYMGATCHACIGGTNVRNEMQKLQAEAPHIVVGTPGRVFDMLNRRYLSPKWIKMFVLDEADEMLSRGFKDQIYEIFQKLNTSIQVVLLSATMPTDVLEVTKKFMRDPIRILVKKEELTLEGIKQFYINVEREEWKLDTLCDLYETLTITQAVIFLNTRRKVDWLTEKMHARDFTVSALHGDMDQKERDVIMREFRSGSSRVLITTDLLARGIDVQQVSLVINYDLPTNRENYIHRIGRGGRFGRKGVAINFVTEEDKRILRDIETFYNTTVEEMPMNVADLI

## C[C@H](Oc1cc(-c2cnn(C3CCNCC3)c2)cnc1N)c1c(Cl)ccc(F)c1Cl [(5)-crizotinib]
[1]
  AvgP: 0
  SC.Exp. 1-1: 1
  SC.Exp. 1-2: 1
  SC.Exp. 2-1: 0
  SC.Exp. 2-2: 1
  SC.Exp. Sum: 3
[2]
  AvgP: 0.4297
  SC.Exp. 1-1: 3
  SC.Exp. 1-2: 3
  SC.Exp. 2-1: 0
  SC.Exp. 2-2: 0
  Sum (SC.Exp.): 6
[3]
  AvgP: 0.4156
  SC.Exp. 1-1: 3
  SC.Exp. 1-2: 3
  SC.Exp. 2-1: 0
  SC.Exp. 2-2: 0
  Sum (SC.Exp.): 6
[4]
  AvgP: 0
  SC.Exp. 1-1: 1
  SC.Exp. 1-2: 1
  SC.Exp. 2-1: 0
  SC.Exp. 2-2: 0
  SC.Exp. Sum: 2
[5]
  AvgP: 0.2355
  SC.Exp. 1-1: 2
  SC.Exp. 1-2: 2
  SC.Exp. 2-1: 0
  SC.Exp. 2-2: 0
  Sum (SC.Exp.): 4
[6]
  AvgP: 0.8429
  SC.Exp. 1-1: 4
  SC.Exp. 1-2: 3
  SC.Exp. 2-1: 3
  SC.Exp. 2-2: 3
  Sum (SC.Exp.): 13
[7]
  AvgP: 0
  SC.Exp. 1-1: 1
  SC.Exp. 1-2: 1
  SC.Exp. 2-1: 1
  SC.Exp. 2-2: 0
  SC.Exp. Sum: 3
[8]
  AvgP: 0.2466
  SC.Exp. 1-1: 14
  SC.Exp. 1-2: 12
  SC.Exp. 2-1: 0
  SC.Exp. 2-2: 0
  Sum (SC.Exp.): 26
